This passage reports Ki results from BindingDB's records for doi:10.7270/Q2NZ862K (Nmmlsc, 2007).

The target of the assay is T1, fMet-Leu-Phe receptor (Homo sapiens, UniProt P21462).
T1 sequence (P21462 whole entry): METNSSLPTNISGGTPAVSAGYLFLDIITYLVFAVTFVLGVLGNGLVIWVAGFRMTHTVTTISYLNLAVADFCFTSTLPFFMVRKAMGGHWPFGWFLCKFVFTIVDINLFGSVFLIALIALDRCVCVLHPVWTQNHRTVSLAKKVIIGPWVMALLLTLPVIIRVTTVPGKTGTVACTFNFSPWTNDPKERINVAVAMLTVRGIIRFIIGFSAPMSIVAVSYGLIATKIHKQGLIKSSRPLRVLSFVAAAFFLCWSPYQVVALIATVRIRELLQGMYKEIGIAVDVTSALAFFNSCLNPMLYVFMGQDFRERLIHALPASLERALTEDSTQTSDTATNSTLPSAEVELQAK
Nature of the assay: formyl peptide receptor binders – dose response (AID 519).
The term Ki denotes the dissociation constant of the complex between target and ligand, obtained from inhibition or displacement. The compound `COc1cc(C2C(C(=O)c3ccco3)C(=O)C(=O)N2c2cc(C)on2)cc(Br)c1O` (stereo not given) [2-(3-bromanyl-5-methoxy-4-oxidanyl-phenyl)-3-(furan-2-ylcarbonyl)-1-(5-methyl-1,2-oxazol-3-yl)-4-oxidanyl-2H-pyrrol-5-one] had a Ki of 31.2 µM. The value for `COCCCN1C(=O)C(=O)C(C(=O)c2ccco2)C1c1ccc(Br)cc1` (stereo not given) [2-(4-bromophenyl)-3-(furan-2-carbonyl)-4-hydroxy-1-(3-methoxypropyl)-2H-pyrrol-5-one] was 9.6 µM. In turn, `CCCOc1ccc(C2C(C(=O)c3ccc(C)o3)C(=O)C(=O)N2CCCn2ccnc2)cc1` (stereo not given) [1-(3-imidazol-1-ylpropyl)-3-(5-methylfuran-2-yl)carbonyl-4-oxidanyl-2-(4-propoxyphenyl)-2H-pyrrol-5-one] showed a Ki of 9 µM. Next, `Cc1ccc(C(=O)C2C(=O)C(=O)N(CCCn3ccnc3)C2c2ccc(OC(C)C)cc2)o1` (stereo not given) [1-(3-imidazol-1-ylpropyl)-3-(5-methylfuran-2-yl)carbonyl-4-oxidanyl-2-(4-propan-2-yloxyphenyl)-2H-pyrrol-5-one]: over 43.7 µM; `COc1ccccc1C1C(C(=O)c2ccccc2)C(=O)C(=O)N1CCO` (stereo not given) [(4Z)-1-(2-hydroxyethyl)-4-[hydroxy(phenyl)methylene]-5-(2-methoxyphenyl)pyrrolidine-2,3-quinone]: 12.9 µM; `CC1=C(C(=O)OC(C)C)[C@]2(C(=O)N(CC(N)=O)c3ccccc32)C(C#N)C(=N)O1` (stereo partly drawn) [(3R)-6'-amino-1-(2-amino-2-keto-ethyl)-5'-cyano-2-keto-2'-methyl-spiro[indoline-3,4'-pyran]-3'-carboxylic acid isopropyl ester]: over 43.7 µM. The value for `CSCCC1c2c(-c3cccs3)n[nH]c2OC(=N)C1C#N` (stereo not given) [6-azanyl-4-(2-methylsulfanylethyl)-3-thiophen-2-yl-2,4-dihydropyrano[2,3-c]pyrazole-5-carbonitrile] was over 43.7 µM. The value for `COc1ccc(C2C(C(=O)c3cccs3)C(=O)C(=O)N2c2nnc(C)s2)cc1OC` (stereo not given) [2-(3,4-dimethoxyphenyl)-1-(5-methyl-1,3,4-thiadiazol-2-yl)-4-oxidanyl-3-thiophen-2-ylcarbonyl-2H-pyrrol-5-one] was over 43.7 µM; that for `C=C(c1ccc(Br)cc1)c1sc(N2CCCC2)nc1O` [(5Z)-5-[1-(4-bromophenyl)ethylidene]-2-(1-pyrrolidinyl)-4-thiazolone] was over 43.7 µM. `O=C1C(=O)N(CCc2ccccc2)C(c2cccnc2)C1C(=O)c1ccco1` (stereo not given) [3-(furan-2-carbonyl)-4-hydroxy-1-(2-phenylethyl)-2-pyridin-3-yl-2H-pyrrol-5-one]: the Ki was over 43.7 µM. `CCOc1ccc(C(=O)C2C(=O)C(=O)N(c3nc(C)c(C)s3)C2c2ccco2)cc1` (stereo not given) [(4Z)-1-(4,5-dimethyl-1,3-thiazol-2-yl)-4-[(4-ethoxyphenyl)-hydroxymethylidene]-5-(furan-2-yl)pyrrolidine-2,3-dione] had a Ki of 37.8 µM.

For `COC(=O)c1ccc(C2C(C(=O)c3ccc(OC)cc3)C(=O)C(=O)N2Cc2ccco2)cc1` (stereo not given) [4-[(3Z)-1-(2-furanylmethyl)-3-[hydroxy-(4-methoxyphenyl)methylidene]-4,5-dioxo-2-pyrrolidinyl]benzoic acid methyl ester], the affinity corresponds to a Ki of 28.1 µM. This Ki and that of the compound before are within 1.5-fold of each other. Next, `COCCCN1C(=O)C(=O)C(C(=O)c2ccco2)C1c1ccccc1` (stereo not given) [3-(furan-2-carbonyl)-4-hydroxy-1-(3-methoxypropyl)-2-phenyl-2H-pyrrol-5-one]: 9.5 µM.

With `Cc1ccc(C(=O)C2C(=O)C(=O)N(c3cc(C)on3)C2c2cccc(Br)c2)cc1` (stereo not given) [(4E)-5-(3-bromophenyl)-1-(5-methyl-1,2-oxazol-3-yl)-4-[(4-methylphenyl)-oxidanyl-methylidene]pyrrolidine-2,3-dione], the Ki was over 43.7 µM. The value for `COc1cccc(C(=O)C2C(=O)C(=O)N(Cc3cccnc3)C2c2ccco2)c1` (stereo not given) [(4Z)-5-(2-furanyl)-4-[hydroxy-(3-methoxyphenyl)methylidene]-1-(3-pyridinylmethyl)pyrrolidine-2,3-dione] was over 43.7 µM.
